Assay results: article PMC9603181, “RNA-Dependent RNA Polymerase of the Second Human Pegivirus Exhibits a High-Fidelity Feature” (Microbiology Spectrum, 2022)

Assays:
Assay type in all cases: biochemical
HCV NS5B (HCV RdRp) [1] = biological target: T1, HCV NS5B (HCV RdRp) (Orthohepacivirus hominis, UniProt A0A140D8J5); assay: two-step single-nucleotide-incorporation assay, urea-PAGE, Stain-All; conditions: T32 RNA template, pGG primer, pH 6.5, 30 C; sof-TP dose response from 50 uM; UTP analogue, chain terminator
T1 construct: NS5B residues 1-570 (SMSY to ARFR) of the genome polyprotein, C-terminal truncation, C-terminal His6 tag kept, pET-26b, E. coli BL21(DE3)

[2] = biological target: T2, HPgV-2 NS5B (HPgV-2 RdRp) (Human hepegivirus, UniProt A0A2L0ARU6); assay: two-step single-nucleotide-incorporation assay, time course, urea-PAGE, Stain-All; conditions: T30/pGG, CTP 500 uM as only step 2 substrate, Mg2+/Mn2+, pH 6.5, 30 C
T2 construct: NS5B residues 1-551 (QSYN to GASR) of the genome polyprotein, C-terminal truncation, C-terminal His6 tag kept, pET-26b, E. coli BL21(DE3)

HCV NS5B (HCV RdRp) [3] = biological target: T1, HCV NS5B (HCV RdRp); assay: as above; conditions: T30/pGG, CTP 500 uM as only step 2 substrate, no Mn2+, pH 6.5, 30 C

Row | Compound | two-step single-nucleotide-incorporation assay, urea-PAGE, Stain-All (HCV NS5B (HCV RdRp) [1]) | two-step single-nucleotide-incorporation assay, time course, urea-PAGE, Stain-Al [2] | two-step single-nucleotide-incorporation assay, time course, urea-PAGE, Stain-Al (HCV NS5B (HCV RdRp) [3])
1 | C[C@@]1(F)[C@H](O)[C@@H](COP(=O)(O)OP(=O)(O)OP(=O)(O)O)O[C@H]1n1ccc(=O)[nH]c1=O [PSI-7409] | a clear P9S band was observed in the presence of HCV NS5B |  | 
2 | Nc1ccn([C@@H]2O[C@H](COP(=O)(O)OP(=O)(O)OP(=O)(O)O)[C@@H](O)[C@H]2O)c(=O)n1 [CTP] |  | no significant difference in the synthesis of the correct P10 between HCV and HPgV-2 NS5B | no significant difference in the synthesis of the correct P10 between HCV and HPgV-2 NS5B
